Data: US11434242B2, “Dopamine-b-hydroxylase inhibitors” (BIAL-PORTELA & Cª, S.A., priority 2017, dated 2022)

Target: T1, Dopamine beta hydroxylase (Homo sapiens, UniProt P09172)
T1 construct: 125 μl of plasma; tissue Instituto Português do Sangue Transplantação; host or cells: human plasma from healthy donors
T1 sequence (P09172 40-617 limits assumed): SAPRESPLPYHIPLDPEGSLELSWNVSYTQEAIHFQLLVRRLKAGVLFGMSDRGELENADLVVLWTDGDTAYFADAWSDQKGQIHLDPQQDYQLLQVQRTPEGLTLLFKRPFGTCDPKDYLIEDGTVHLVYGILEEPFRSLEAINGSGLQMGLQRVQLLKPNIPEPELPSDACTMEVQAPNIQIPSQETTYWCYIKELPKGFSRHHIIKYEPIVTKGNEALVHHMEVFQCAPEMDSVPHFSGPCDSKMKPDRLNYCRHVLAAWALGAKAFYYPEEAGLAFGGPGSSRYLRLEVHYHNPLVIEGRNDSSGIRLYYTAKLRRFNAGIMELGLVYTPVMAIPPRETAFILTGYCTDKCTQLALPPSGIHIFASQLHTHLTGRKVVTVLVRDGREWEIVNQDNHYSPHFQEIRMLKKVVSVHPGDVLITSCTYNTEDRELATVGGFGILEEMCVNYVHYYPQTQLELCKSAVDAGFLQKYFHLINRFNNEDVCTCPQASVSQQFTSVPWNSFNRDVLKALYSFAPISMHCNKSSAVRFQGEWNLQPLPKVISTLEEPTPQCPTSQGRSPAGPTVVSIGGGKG
Test: Dopamine beta hydroxylase activity in human plasma
Type: biochemical
Details: for Plasma (0.1 μM), activity in % of control: inhibitor 0.1 μM; for Plasma (1 μM), activity in % of control: inhibitor 1 μM; for Plasma (0.01 μM), activity in % of control: inhibitor 0.01 μM
In short: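 Healthy-donor human plasma pre-incubated 10 min at 37° C with compound at final 10, 100 or 1000 nM in pH 5.0 acetate buffer with ascorbate, fumarate, pargyline, N-ethylmaleimide, catalase and copper sulfate. Tyramine substrate then added for 45 min; octopamine formed was isolated by SCX cartridge, periodate-converted and read at 330 nm; activity given as % control.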

SMILES | Plasma (0.1 μM), activity in % of control | Plasma (1 μM), activity in % of control | Plasma (0.01 μM), activity in % of control
CN1CCN(C(=O)Cc2[nH]c(=S)n3c2C[C@@H](c2c(F)ccc(Br)c2F)C3)CC1 [Example 91, (S)-2-(6-(3-bromo-2,6-difluorophenyl)-3-thioxo-2,5,6,7-tetrahydro-3H-pyrrolo[1,2-c]imidazol-1-yl)-1-(4-methylpiperazin-1-yl)ethan-1-one] | 19.0 % of control | 0 % of control | 
CCCCN(C)C(=O)Cc1[nH]c(=S)n2c1C[C@@H](c1c(F)ccc(Br)c1F)C2 [Example 92, (S)-2-(6-(3-bromo-2,6-difluorophenyl)-3-thioxo-2,5,6,7-tetrahydro-3H-pyrrolo[1,2-c]imidazol-1-yl)-N-butyl-N-methylacetamide] | 37.5 % of control | 0.1 % of control | 
O=C(Cc1[nH]c(=S)n2c1C[C@@H](c1c(F)ccc(Br)c1F)C2)NCCO [Example 93, (S)-2-(6-(3-bromo-2,6-difluorophenyl)-3-thioxo-2,5,6,7-tetrahydro-3H-pyrrolo[1,2-c]imidazol-1-yl)-N-(2-hydroxyethyl)acetamide] | 32.1 % of control | 1.0 % of control | 
O=C(Cc1[nH]c(=S)n2c1C[C@@H](c1c(F)ccc(Br)c1F)C2)NC1CC1 [Example 94, (S)-2-(6-(3-bromo-2,6-difluorophenyl)-3-thioxo-2,5,6,7-tetrahydro-3H-pyrrolo[1,2-c]imidazol-1-yl)-N-cyclopropylacetamide] | 47.5 % of control | 0.8 % of control | 
O=C(Cc1[nH]c(=S)n2c1C[C@@H](c1c(F)ccc(Br)c1F)C2)NCC1CC1 [Example 95, (S)-2-(6-(3-bromo-2,6-difluorophenyl)-3-thioxo-2,5,6,7-tetrahydro-3H-pyrrolo[1,2-c]imidazol-1-yl)-N-(cyclopropylmethyl)acetamide] | 24.0 % of control | 0 % of control | 
NC(=O)Cc1[nH]c(=S)n2c1C[C@@H](c1c(F)ccc(Br)c1F)C2 [Example 96, (S)-2-(6-(3-bromo-2,6-difluorophenyl)-3-thioxo-2,5,6,7-tetrahydro-3H-pyrrolo[1,2-c]imidazol-1-yl)acetamide] | 22.4 % of control | 0.8 % of control | 
CCCNC(=O)Cc1[nH]c(=S)n2c1C[C@@H](c1c(F)ccc(Br)c1F)C2 [Example 97, (S)-2-(6-(3-bromo-2,6-difluorophenyl)-3-thioxo-2,5,6,7-tetrahydro-3H-pyrrolo[1,2-c]imidazol-1-yl)-N-propylacetamide] | 22.7 % of control | 0.5 % of control | 
O=C(Cc1[nH]c(=S)n2c1C[C@H](c1c(F)c(F)cc(F)c1F)C2)N1CCC[C@H]1CO [Example 98, 1-((S)-2-(hydroxymethyl)pyrrolidin-1-yl)-2-((R)-6-(2,3,5,6-tetrafluorophenyl)-3-thioxo-2,5,6,7-tetrahydro-3H-pyrrolo[1,2-c]imidazol-1-yl)ethan-1-one] | 53.1 % of control | 11.7 % of control | 
O=C(Cc1[nH]c(=S)n2c1C[C@@H](c1c(F)c(F)cc(F)c1F)C2)NC1CCC1 [Example 99, (S)—N-cyclobutyl-2-(6-(2,3,5,6-tetrafluorophenyl)-3-thioxo-2,5,6,7-tetrahydro-3H-pyrrolo[1,2-c]imidazol-1-yl)acetamide] | 55.7 % of control | 10.3 % of control | 
O=C(Cc1[nH]c(=S)n2c1C[C@@H](c1c(F)ccc(Br)c1F)C2)N1CCC[C@H]1CO [Example 100, 2-((S)-6-(3-bromo-2,6-difluorophenyl)-3-thioxo-2,5,6,7-tetrahydro-3H-pyrrolo[1,2-c]imidazol-1-yl)-1-((S)-2-(hydroxymethyl)pyrrolidin-1-yl)ethan-1-one] | 26.2 % of control | 2.1 % of control | 
O=C(Cc1[nH]c(=S)n2c1C[C@@H](c1c(F)ccc(Br)c1F)C2)N1CCCC1 [Example 101, (S)-2-(6-(3-bromo-2,6-difluorophenyl)-3-thioxo-2,5,6,7-tetrahydro-3H-pyrrolo[1,2-c]imidazol-1-yl)-1-(pyrrolidin-1-yl)ethan-1-one] | 37.2 % of control | 3.3 % of control | 
O=C(Cc1[nH]c(=S)n2c1C[C@@H](c1c(F)ccc(Br)c1F)C2)NC1CCC1 [Example 102, (S)-2-(6-(3-bromo-2,6-difluorophenyl)-3-thioxo-2,5,6,7-tetrahydro-3H-pyrrolo[1,2-c]imidazol-1-yl)-N-cyclobutylacetamide] | 20.3 % of control | 1.7 % of control | 
COCCNC(=O)Cc1[nH]c(=S)n2c1C[C@@H](c1c(F)ccc(Br)c1F)C2 [Example 103, (S)-2-(6-(3-bromo-2,6-difluorophenyl)-3-thioxo-2,5,6,7-tetrahydro-3H-pyrrolo[1,2-c]imidazol-1-yl)-N-(2-methoxyethyl)acetamide] | 21.6 % of control | 1.8 % of control | 
O=C(Cc1[nH]c(=S)n2c1C[C@H](c1c(F)c(F)cc(F)c1F)C2)N1CCCC1 [Example 104, (R)-1-(pyrrolidin-1-yl)-2-(6-(2,3,5,6-tetrafluorophenyl)-3-thioxo-2,5,6,7-tetrahydro-3H-pyrrolo[1,2-c]imidazol-1-yl)ethan-1-one] | 67.9 % of control | 19.5 % of control | 
O=C(Cc1[nH]c(=S)n2c1C[C@@H](c1c(F)c(F)cc(F)c1F)C2)N1CCCC1 [Example 105, (S)-1-(pyrrolidin-1-yl)-2-(6-(2,3,5,6-tetrafluorophenyl)-3-thioxo-2,5,6,7-tetrahydro-3H-pyrrolo[1,2-c]imidazol-1-yl)ethan-1-one] | 74.9 % of control | 22.0 % of control | 
Cl.O=C(Cc1[nH]c(=S)n2c1C[C@@H](c1c(F)ccc(Cl)c1F)C2)NCCc1ccccn1 [Example 106, (S)-2-(6-(3-chloro-2,6-difluorophenyl)-3-thioxo-2,5,6,7-tetrahydro-3H-pyrrolo[1,2-c]imidazol-1-yl)-N-(2-(pyridin-2-yl)ethyl)acetamide hydrochloride] | 33.9 % of control | 4.1 % of control | 
COCCNC(=O)Cc1[nH]c(=S)n2c1C[C@@H](c1c(F)ccc(Cl)c1F)C2 [Example 107, (S)-2-(6-(3-chloro-2,6-difluorophenyl)-3-thioxo-2,5,6,7-tetrahydro-3H-pyrrolo[1,2-c]imidazol-1-yl)-N-(2-methoxyethyl)acetamide] | 40.1 % of control | 6.3 % of control | 
NC(=O)Cc1[nH]c(=S)n2c1C[C@@H](c1c(F)ccc(Cl)c1F)C2 [Example 108, (S)-2-(6-(3-chloro-2,6-difluorophenyl)-3-thioxo-2,5,6,7-tetrahydro-3H-pyrrolo[1,2-c]imidazol-1-yl)acetamide] | 46.9 % of control | 5.3 % of control | 
Cl.O=C(Cc1[nH]c(=S)n2c1C[C@@H](c1c(F)ccc(Cl)c1F)C2)NCc1cccnc1 [Example 109, (S)-2-(6-(3-chloro-2,6-difluorophenyl)-3-thioxo-2,5,6,7-tetrahydro-3H-pyrrolo[1,2-c]imidazol-1-yl)-N-(pyridin-3-ylmethyl)acetamide Hydrochloride] | 5.4 % of control | 1.5 % of control | 
O=C(Cc1[nH]c(=S)n2c1C[C@@H](c1c(F)ccc(Cl)c1F)C2)N1CCCC1 [Example 110, (S)-2-(6-(3-chloro-2,6-difluorophenyl)-3-thioxo-2,5,6,7-tetrahydro-3H-pyrrolo[1,2-c]imidazol-1-yl)-1-(pyrrolidin-1-yl)ethan-1-one] | 52.4 % of control | 9.7 % of control | 
O=C(Cc1[nH]c(=S)n2c1C[C@@H](c1c(F)ccc(Cl)c1F)C2)N1CCC(F)(F)CC1 [Example 111, (S)-2-(6-(3-chloro-2,6-difluorophenyl)-3-thioxo-2,5,6,7-tetrahydro-3H-pyrrolo[1,2-c]imidazol-1-yl)-1-(4,4-difluoropiperidin-1-yl)ethan-1-one] | 36.7 % of control |  | 89.6 % of control
O=C(Cc1[nH]c(=S)n2c1C[C@@H](c1c(F)ccc(Cl)c1F)C2)NC1CCS(=O)(=O)CC1 [Example 112, (S)-2-(6-(3-chloro-2,6-difluorophenyl)-3-thioxo-2,5,6,7-tetrahydro-3H-pyrrolo[1,2-c]imidazol-1-yl)-N-(1,1-dioxidotetrahydro-2H-thiopyran-4-yl)acetamide] | 0 % of control |  | 9.9 % of control
